Results taken from patent publication US11413278B2, “Compounds and methods for promoting stress resistance” (priority 2015, dated 2022).
Where two headings read alike, the source gives them in different places.

How the values were obtained:
WI-38 cells [1] = assay: Propidium iodide (PI) cell-death imaging upon H2O2 stress; assay type: cell-based, human; settings: for Assay 7: H2O2-resistant, at 10 uM, validated by propidium iodide (PI) cell-death imaging: w/H2O2, 3 hrs/4 hrs/5 hrs, YES/NO; for cytotoxicity at 10 µM: Homo sapiens, WI-38
WI-38 cells [2] = assay: CdCl2 (cadmium) resistance assay; assay type: cell-based, human; settings: for fold induction at 10 µM: Homo sapiens, 12 h, normalized ATP measurement; for Assay 4: H2O2- & Cd-resistant / Assay 2: Cadmium-resistant: YES/NO; for Assay 2: Cadmium-resistant: * indicates partial
Summary of the method: (§1)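 WI-38 cells were given compounds at five final concentrations (0.25–20 μM) in triplicate, followed by cadmium or MMS for 12 h. For MMS, medium was switched from OptiMEM+10% FBS to serum-free DMEM+2% BSA when compounds were added, 24 h before stressor. Two independent assays were run, analysed by global variance t-test.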

WI-38 cells [3] = assay: MMS resistance assay; assay type: cell-based, human; settings: for fold induction at 10 µM: Homo sapiens, 12 h, normalized ATP measurement; for Assay 3: MMS-resistant / Assay 5: Triple resistant: YES/NO; for Assay 3: MMS-resistant: * indicates partial; for Assay 5: Triple resistant: H2O2, cadmium and MMS
Summary of the method: as §1

[4] = system: human dermal fibroblast (HDF) primary cells; assay: H2O2-resistance in primary human dermal fibroblasts; assay type: cell-based; settings: for fold induction at 10 µM: Homo sapiens; for Assay 6: H2O2-resistant, at 10 uM, human dermal fibroblast (HDF) primary cells: YES/NO
C. elegans = assay type: in vivo, Caenorhabditis elegans
Summary of the method: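 Worms treated in liquid with compounds in 96-well plates (4 wells each, FUdR to block progeny, 0.2% DMSO controls); H2O2 at 500 μM final added on day 4 of adulthood and viability scored daily.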

WI-38 cells [5] = assay: Long-term effects on cell viability (5 days, ATP; morphology, PI imaging); assay type: cell-based; settings: 10 μM; for Luminescence signal for ATP measurement, day-1 Average / Luminescence signal for ATP measurement, day-2 Average / Luminescence signal for ATP measurement, day-3 Average / Luminescence signal for ATP measurement, day-4 Average / Luminescence signal for ATP measurement, day-5 Average / viability at 10 µM: Batch 1; for Luminescence signal for ATP measurement, day-1 Average / Luminescence signal for ATP measurement, day-2 Average / Luminescence signal for ATP measurement, day-3 Average / Luminescence signal for ATP measurement, day-4 Average / Luminescence signal for ATP measurement, day-5 Average: n = 6, day-0 luminescence = 320956 ± 24708; for viability at 10 µM: Homo sapiens, WI-38, 120 h, DMSO ctrl = 100.0%, read-out: ATP luminescence by day-5 normalized; for Luminescence signal for ATP measurement, day-5 Average / viability at 10 µM: day-5; for O = Potential toxicity / Q = Potential toxicity: human, 5 days;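 on Luminescence signal for ATP measurement, day-2 Average: compounds at 10 µM with ATP read daily over 5 days of treatment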;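 on Luminescence signal for ATP measurement, day-3 Average: compounds at 10 µM with ATP read daily over 5 days of treatment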;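 on Luminescence signal for ATP measurement, day-4 Average: compounds at 10 µM with ATP read daily over 5 days of treatment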;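 on Luminescence signal for ATP measurement, day-5 Average: compounds at 10 µM with ATP read daily over 5 days of treatment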
[6] = Summary score for characterization of 38 core set hits; settings: for D = Triple resistant: 2-point score, multiplex resistance (cadmium, MMS, H2O2); for C = H2O2- & Cd-resistant: score, resistance to both H2O2 and cadmium
Summary of the method: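 Composite score. 2 pts each: multiplex stress resistance, FOXO3/NRF2 activation, mTOR down-regulation. Worm lifespan (4–6 independent trials): 0 = no obvious effect, 1 = extension in 2 trials, 2 = extension in >2 trials. −1 for DNA damage and/or cytotoxicity in cultured human cells.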

[7] = H2O2 3 hrs, 10 uM, n = 6, negative control 5.44% ± 0.79%, read-out: Percentage of propidium iodide-positive dead cells (under H2O2 stress treatment), 3 hrs
[8] = pre-treatment at 10 uM, 3.5 hours of H2O2, DMSO control 27.4% ± 6.5%, */**/*** = reduced by one/two/three standard deviations, read-out: Percentage of propidium iodide-positive dead cells (under H2O2 stress treatment), at 10 uM
[9] = Exp. 1, WI-38 cells, read-out: Exp. 1, under Cd2Cl2 stress treatment, at 10 uM (fold change)
[10] = Exp. 2, WI-38 cells, read-out: Exp. 2, under Cd2Cl2 stress treatment, at 10 uM (fold change)
[11] = WI-38 cells, 10 μM, both stressors
[12] = score in summary of 38 core set hits
[13] = Exp. 1, WI-38 cells, read-out: Exp. 1, under MMS stress treatment, at 10 uM (fold change)
[14] = Exp. 2, WI-38 cells, read-out: Exp. 2, under MMS stress treatment, at 10 uM (fold change)
[15] = Experiment 1, HDF cells, read-out: Experiment 1, HDF cells (under H2O2 stress treatment), at 10 uM (fold change)
[16] = Experiment 2, HDF cells, read-out: Experiment 2, HDF cells (under H2O2 stress treatment), at 10 uM (fold change)
[17] = H2O2 4 hrs, 10 uM, n = 6, negative control 16.81% ± 1.42%, read-out: Percentage of propidium iodide-positive dead cells (under H2O2 stress treatment), 4 hrs

SMILES | Assay 7: H2O2-resistant, at 10 uM, validated by propidium iodide (PI) cell-death imaging (WI-38 cells [1]; 10 uM) | cytotoxicity at 10 µM (WI-38 cells [1]; [7]) | cytotoxicity at 10 µM (WI-38 cells [1]; [8]) | fold induction at 10 µM (WI-38 cells [2]; [9]) | fold induction at 10 µM (WI-38 cells [2]; [10]) | Assay 4: H2O2- & Cd-resistant (WI-38 cells [2]) | Assay 2: Cadmium-resistant (WI-38 cells [2]) | A = Cadmium resistant (WI-38 cells [2]; [12]) | A = Cadmium resistant (WI-38 cells [2]; summary score) | C = H2O2- & Cd-resistant (WI-38 cells [2]; summary score) | fold induction at 10 µM (WI-38 cells [3]; [13]) | B = MMS resistant (WI-38 cells [3]; [12]) | B = MMS resistant (WI-38 cells [3]; summary score) | D = Triple resistant (WI-38 cells [3]; summary score) | fold induction at 10 µM [4, 15] | fold induction at 10 µM [4, 16] | O = Potential toxicity (WI-38 cells [5]) | Q = Potential toxicity (WI-38 cells [5]) | D = Triple resistant [6] | C = H2O2- & Cd-resistant [6] | other results
COc1ccc(C(=O)/C=C/c2ccc(F)cc2)c(OC)c1 [Gr-4A] | YES | 1.87% | 1.9% | 1.98 | 1.66 | YES | YES | 1 | 1 | 1 | 0.95 | 0 | 0 | 0 | 7.16 | 2.35 | 0 | 0 | 0 | 1 | CdCl2-resistant (WI-38 cells [2]): YES; H2O2- & CdCl2-resistant (WI-38 cells [2]): YES; CdCl2-resistant (WI-38 cells [2]; WI-38 cells, 10 μM): YES; H2O2- & CdCl2-resistant (WI-38 cells [2]; [11]): YES; fold induction at 10 µM (WI-38 cells [3]; [14]): 1.52; Assay 6: H2O2-resistant, at 10 uM, human dermal fibroblast (HDF) primary cells [4]: YES; N = H2O2-resistance in woms (C. elegans; score): 0; L = H2O2-resistance in worms (C. elegans; summary score): 0; Luminescence signal for ATP measurement, day-1 Average (WI-38 cells [5]): 501436; Luminescence signal for ATP measurement, day-2 Average (WI-38 cells [5]): 605711; Luminescence signal for ATP measurement, day-3 Average (WI-38 cells [5]): 772420; Luminescence signal for ATP measurement, day-4 Average (WI-38 cells [5]): 995321; Luminescence signal for ATP measurement, day-5 Average (WI-38 cells [5]): 1019996; viability at 10 µM (WI-38 cells [5]): 99.3%; S = Sum of Negative scores ([6]; sum of columns Q and R): 0
CNC(=O)/C(C#N)=C/c1c(Oc2ccc(C(C)(C)C)cc2)nc2ccccn2c1=O [Gr-5D] | YES | 3.28% | 6.4% | – | – | YES | YES | 0 | 1 | 1 | – | 0 | 1 | 2 | 0.18 | 2.66 | 0 | 0 | 0 | 0 | Assay 3: MMS-resistant (WI-38 cells [3]): YES; Assay 5: Triple resistant (WI-38 cells [3]): YES; Assay 6: H2O2-resistant, at 10 uM, human dermal fibroblast (HDF) primary cells [4]: YES; L = H2O2-resistance in worms (C. elegans; in vivo): 0; N = H2O2-resistance in woms (C. elegans; in vivo): 0; Luminescence signal for ATP measurement, day-1 Average (WI-38 cells [5]): 498641; Luminescence signal for ATP measurement, day-2 Average (WI-38 cells [5]): 763806; Luminescence signal for ATP measurement, day-3 Average (WI-38 cells [5]): 920681; Luminescence signal for ATP measurement, day-4 Average (WI-38 cells [5]): 1052285; Luminescence signal for ATP measurement, day-5 Average (WI-38 cells [5]): 1110868; viability at 10 µM (WI-38 cells [5]): 108%; S = Sum of Negative scores ([6]; human): 0
[O-][n+]1onc2c3nsnc3c(Br)cc21 [O17] | YES | 0.8% | 6.6% | 0.95 | 1.35 | – | – | 0 | 0 | 0 | 0.86 | 0 | 0 | 0 | 3.35 | 48.5 | 0 | 0 | 0 | 0 | cytotoxicity at 10 µM (WI-38 cells [1]; [17]): 2.83%; fold induction at 10 µM (WI-38 cells [3]; [14]): 5.33; Assay 6: H2O2-resistant, at 10 uM, human dermal fibroblast (HDF) primary cells [4]: YES; H2O2-resistance assay, 1st experiment (C. elegans; in vivo): YES;; H2O2-resistance assay, 2nd experiment (C. elegans; in vivo): YES.; L = H2O2-resistance in worms (C. elegans; in vivo): 1; N = H2O2-resistance in woms (C. elegans; in vivo): 1; Protection of C. elegans from hydrogen peroxide (C. elegans; in vivo): could protect C. elegans from hydrogen peroxide; Luminescence signal for ATP measurement, day-1 Average (WI-38 cells [5]): 507143; Luminescence signal for ATP measurement, day-2 Average (WI-38 cells [5]): 697351; Luminescence signal for ATP measurement, day-3 Average (WI-38 cells [5]): 849445; Luminescence signal for ATP measurement, day-4 Average (WI-38 cells [5]): 1073975; Luminescence signal for ATP measurement, day-5 Average (WI-38 cells [5]): 1070851; viability at 10 µM (WI-38 cells [5]): 104%; S = Sum of Negative scores ([6]; human): 0
Cc1cc(C)c(C(=O)/C=C/c2ccccc2F)c(O)n1 [O18] | YES | 3.66% | 4.5% | 1.5 | 1.24 | YES | YES | 0 | 1 | 1 | 1.11 | 0 | 1 | 2 | 72.5 | 1.27 | 0 | 0 | 0 | 0 | cytotoxicity at 10 µM (WI-38 cells [1]; [17]): 3.06%; cytotoxicity at 10 µM (WI-38 cells [1]; H2O2 5 hrs, 10 uM, n = 6, negative control 22.50% ± 1.53%, read-out: Percentage of propidium iodide-positive dead cells (under H2O2 stress treatment), 5 hrs): 4.16%; fold induction at 10 µM (WI-38 cells [3]; [14]): 1.48; Assay 3: MMS-resistant (WI-38 cells [3]): YES; Assay 5: Triple resistant (WI-38 cells [3]): YES; L = H2O2-resistance in worms (C. elegans; in vivo): 0; N = H2O2-resistance in woms (C. elegans; in vivo): 0; Luminescence signal for ATP measurement, day-1 Average (WI-38 cells [5]): 453443; Luminescence signal for ATP measurement, day-2 Average (WI-38 cells [5]): 639628; Luminescence signal for ATP measurement, day-3 Average (WI-38 cells [5]): 693776; Luminescence signal for ATP measurement, day-4 Average (WI-38 cells [5]): 825623; Luminescence signal for ATP measurement, day-5 Average (WI-38 cells [5]): 760275; viability at 10 µM (WI-38 cells [5]): 74%; S = Sum of Negative scores ([6]; human): 0
COc1ccc(C(=O)/C=C/c2ccccc2Br)c(OC)c1 [Gr-4B] | YES | 3.31% | 3.4% | 2 | 1.52 | YES | YES | 1 | 1 | 1 | 1.22 | 0 | 1 | 2 | 13.7 | 55.6 | 0 | 0 | 0 | 1 | CdCl2-resistant (WI-38 cells [2]): YES; H2O2- & CdCl2-resistant (WI-38 cells [2]): YES; CdCl2-resistant (WI-38 cells [2]; WI-38 cells, 10 μM): YES; H2O2- & CdCl2-resistant (WI-38 cells [2]; [11]): YES; fold induction at 10 µM (WI-38 cells [3]; [14]): 1.54; Assay 3: MMS-resistant (WI-38 cells [3]): YES; Assay 5: Triple resistant (WI-38 cells [3]): YES; Assay 6: H2O2-resistant, at 10 uM, human dermal fibroblast (HDF) primary cells [4]: YES; N = H2O2-resistance in woms (C. elegans; score): 0; L = H2O2-resistance in worms (C. elegans; summary score): 0; S = Sum of Negative scores ([6]; sum of columns Q and R): 0
